Like-named read-outs stand apart in the source and are kept apart here.
Columns and labels:
[1] = target: T1, JAK2 JH2 WT (V536-D812) [W659A, W777A, F794H solubilizing mutations] (Homo sapiens, UniProt O60674, F794H/W659A/W777A); experiment: Surface Plasmon Resonance (SPR) binding assay, JAK2 JH2 domain
T1 construct: **JAK2 JH2 WT (V536-D812) [W659A, W777A, F794H solubilizing mutations]; C-thrombin-avi-His6; thrombin cleavage site (C); His6 (C); purchased Biortus
In short: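 Kinetics came from 1:1 fits of single-cycle runs at 20 °C: four 3-fold dilutions from 5 uM for JH1 or 500 nM for JH2, 60 s association, and 300 s or 1200 s dissociation respectively. Protein was freshly captured per compound in the presence of 10 uM stabilizer compound, with running buffer of pH 7.5 HEPES/NaCl/glycerol/DTT plus 2% DMSO.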

JAK2 JH1 WT (T842-G1132) = target: T2, JAK2 JH1 WT (T842-G1132) (Homo sapiens, UniProt O60674); experiment: Surface Plasmon Resonance (SPR) binding assay, JAK2 JH1 domain
T2 construct: *JAK2 JH1 WT (T842-G1132) N-His60-avi-TEV; His6 (N); TEV cleavage site (N); purchased Biortus
T2 sequence (O60674 842-1132): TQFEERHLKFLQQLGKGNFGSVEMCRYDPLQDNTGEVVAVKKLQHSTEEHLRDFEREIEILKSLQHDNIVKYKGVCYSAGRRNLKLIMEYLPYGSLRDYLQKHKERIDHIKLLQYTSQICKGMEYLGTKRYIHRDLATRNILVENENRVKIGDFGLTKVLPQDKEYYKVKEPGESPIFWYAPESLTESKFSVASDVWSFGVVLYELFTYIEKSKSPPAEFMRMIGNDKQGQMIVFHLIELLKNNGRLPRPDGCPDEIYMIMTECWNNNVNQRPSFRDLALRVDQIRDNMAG
Experimental: Selected compounds of the present disclosure were tested in a Surface Plasmon Resonance (SPR) Assay to measure their binding kinetics and affinity for proteins of interest.
Prepare buffer: 50 mM HEPES pH 7.5, 150 mM NaCl, 0.05% (v/v) Tween, and 10% (v/v) glycerol were combined and pH was adjusted to 7.5, then filtered. 5 mM DTT, was added, and buffer without DMSO was reserved for compound resuspension. 2% (v/v) DMSO was added for assay buffer, and separately 1% DMSO was used to make buffer for resuspending compounds.
Prepare compounds: Using a Bravo liquid handler, 99 μL of 1% (v/v) DMSO assay buffer was added to 1 μL compounds in DMSO.
Run 8K Method: Biotin CAPture (CAP) chip surface was regenerated prior to run by: Inserting CAP chip into Biacore 8K, prime machine with assay buffer with 2% (v/v) DMSO; Setting instrument temperature to 20° C.; Conditioning surface with NaOH/GdnHCl reagents from CAP chip kit (60 seconds, 10 μL/min); and Capturing oligo-Streptavidin (SA) reagent from CAP kit (600 seconds, 1 μL/min), expected capture ˜2500 RU. JAK2 JH1 or JH2 protein was immobilized by preparing a sample of 0.5 uM JH1 or 0.4 uM JH2 protein diluted in assay buffer without DMSO and supplemented with 10 uM of a selected compound of the invention as a stabilizer (370 seconds, 5 uL/min), expected capture ˜1000 RU. Remaining biotin sites on SA were blocked with 1 uM biotin (30 seconds, 20 uL/min), then equilibrated for 1800 seconds at 100 uL/min. Compounds being assayed were run in single cycle kinetics: 4 doses with a top concentration of 5 uM (JH1) or 500 nM (JH2), dilution factor of 3, at 20° C., for a contact time of 60 seconds, and a dissociation time of 300 seconds (JH1) or 1200 seconds (JH2), at a flow rate of 30 uL/min. The surface was completely regenerated after each compound is run, and JH1 or JH2 protein was immobilized fresh prior to each new compound. Data were fitted kinetically with 1:1 binding model using Biacore Insight Evaluation Software.

[2] = tested on: TF1 JAK2 V617F STAT3 reporter; experiment: Cellular TF1 STAT3 assay (luciferase reporter), JAK2 V617F; assay type: cell-based; settings: read-out: Cell PD-TF1 JAK2 V617F STAT3 (IC50)
In short: (§1)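 TF1 erythroleukemia cells expressing V617F JAK2 with a STAT3 or STAT5 luciferase reporter were seeded at 10,000 cells/well onto compound (10-point, 1:3 dilutions; 10 mM top stock at 1000×) and incubated 18-20 h at 37 °C, 5% CO2. Luminescence was read after ONE-glo addition, 10 min at room temperature.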

[3] = tested on: TF1 JAK2 V617F STAT5 reporter; experiment: Cellular TF1 STAT5 assay (luciferase reporter), JAK2 V617F; assay type: cell-based; settings: read-out: Cell PD TF1 V617F STAT5 (IC50)
In short: as §1

[4] = Homo sapiens, TF-1, TF1 cells, JAK2 V617F

T1 sequence (O60674 536-812 W659A/W777A/F794H): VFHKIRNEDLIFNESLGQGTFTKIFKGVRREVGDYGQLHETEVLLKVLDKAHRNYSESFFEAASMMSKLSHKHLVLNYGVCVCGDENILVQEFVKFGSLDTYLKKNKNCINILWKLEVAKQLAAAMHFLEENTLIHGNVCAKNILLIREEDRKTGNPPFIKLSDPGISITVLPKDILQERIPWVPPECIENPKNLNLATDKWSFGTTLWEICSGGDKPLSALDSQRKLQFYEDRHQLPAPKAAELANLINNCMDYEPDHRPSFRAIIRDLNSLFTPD

Row | Kd ([1]; SPR, JAK2 JH2 domain) | Kd (JAK2 JH1 WT (T842-G1132); SPR, JAK2 JH1 domain) | IC50 ([2]; TF1 JAK2 V617F) | IC50 ([3]; TF1 JAK2 V617F) | Kd [1] | Kd (JAK2 JH1 WT (T842-G1132)) | IC50 [2, 4] | IC50 [3, 4] | Compound
1 | 0.01 to 10 nM | 5000 to 100000 nM | 500 to 5000 nM | 500 to 5000 nM |  |  |  |  | CNC(=O)c1nnc(NC(=O)C2CC2)cc1Nc1cccc(-c2cnc(C(=O)N(C)Cc3ccn(C)n3)c(C#N)c2)c1OC [Compound 92]
2 | 0.01 to 10 nM | 5000 to 100000 nM | 500 to 5000 nM | 500 to 5000 nM |  |  |  |  | CNC(=O)c1nnc(NC(=O)C2CC2)cc1Nc1cccc(-c2ccc(C(=O)N(C)Cc3ccn(C)n3)c(C#N)c2)c1OC [Compound 119]
3 | 0.01 to 10 nM | 5000 to 100000 nM | 50 to 500 nM | 50 to 500 nM |  |  |  |  | CNC(=O)c1nnc(NC(=O)C2CC2)cc1Nc1cccc(-c2ccc(C(=O)N(C)Cc3c(C)ccnc3C)nc2)c1OC [Compound 133]
4 | 0.01 to 10 nM | 5000 to 100000 nM | 50 to 500 nM | 50 to 500 nM |  |  |  |  | CNC(=O)c1nnc(NC(=O)C2CC2)cc1Nc1cccc(-c2ccc(C(=O)N(C)Cc3cccc(C#N)n3)nc2)c1OC [Compound 135]
5 | 0.01 to 10 nM | 5000 to 100000 nM | 50 to 500 nM | 500 to 5000 nM |  |  |  |  | CNC(=O)c1nnc(NC(=O)C2CC2)cc1Nc1cccc(-c2ccc(C(=O)N(C)Cc3cccnc3C#N)nc2)c1OC [Compound 136]
6 | 0.01 to 10 nM | 5000 to 100000 nM | 500 to 5000 nM | 500 to 5000 nM |  |  |  |  | CNC(=O)c1nnc(NC(=O)C2CC2)cc1Nc1cccc(-c2cnn(C3CN(Cc4nc(C)cs4)C3)c2)c1OC [Compound 141]
7 | 0.01 to 10 nM | 500 to 5000 nM | 50 to 500 nM | 50 to 500 nM |  |  |  |  | CNC(=O)c1nnc(NC(=O)C2CC2)cc1Nc1cccc(-c2cnn(C3CN(Cc4cccc(F)n4)C3)c2)c1OC [Compound 142]
8 | 0.01 to 10 nM | 5000 to 100000 nM | 50 to 500 nM | 50 to 500 nM |  |  |  |  | CNC(=O)c1nnc(NC(=O)C2CC2)cc1Nc1cccc(-c2cnn(C3CN(Cc4cccc(Cl)n4)C3)c2)c1OC [Compound 143]
9 | 0.01 to 10 nM | 5000 to 100000 nM | 50 to 500 nM | 50 to 500 nM |  |  |  |  | CNC(=O)c1nnc(NC(=O)C2CC2)cc1Nc1cccc(-c2cnn(C3CN(Cc4cccc(C(F)F)n4)C3)c2)c1OC [Compound 145]
10 | 0.01 to 10 nM | 5000 to 100000 nM | 500 to 5000 nM | 5000 to 100000 nM |  |  |  |  | CNC(=O)c1nnc(NC(=O)C2CC2)cc1Nc1cccc(-c2ccc(C(=O)N(C)Cc3nncs3)nc2)c1OC [Compound 146]
11 | 0.01 to 10 nM | 500 to 5000 nM | 50 to 500 nM | 50 to 500 nM |  |  |  |  | CNC(=O)c1nnc(NC(=O)C2CC2)cc1Nc1cccc(-c2cnn(C3CN(Cc4cccc(C#N)n4)C3)c2)c1OC [Compound 147]
12 | 0.01 to 10 nM | 500 to 5000 nM | 500 to 5000 nM | 5000 to 100000 nM |  |  |  |  | CNC(=O)c1nnc(NC(=O)C2CC2)cc1Nc1cccc(-c2cnn(C3CN(Cc4ccnc(C)n4)C3)c2)c1OC [Compound 148]
13 | 0.01 to 10 nM | 5000 to 100000 nM | 500 to 5000 nM | 500 to 5000 nM |  |  |  |  | CNC(=O)c1nnc(NC(=O)C2CC2)cc1Nc1cccc(-c2ccc(C(=O)N(C)Cc3nnc(C)s3)nc2)c1OC [Compound 149]
14 | 0.01 to 10 nM | 5000 to 100000 nM | 500 to 5000 nM | 500 to 5000 nM |  |  |  |  | CNC(=O)c1nnc(NC(=O)C2CC2)cc1Nc1cccc(-c2cn(C3CN(Cc4ccccn4)C3)nn2)c1OC [Compound 150]
15 | 0.01 to 10 nM | 500 to 5000 nM | 50 to 500 nM | 50 to 500 nM |  |  |  |  | CNC(=O)c1nnc(NC(=O)C2CC2)cc1Nc1cccc(-c2cn(C3CN(Cc4cccc(C)n4)C3)nn2)c1OC [Compound 151]
16 | 0.01 to 10 nM | 500 to 5000 nM | 50 to 500 nM | 50 to 500 nM |  |  |  |  | C#Cc1cccc(CN2CC(n3cc(-c4cccc(Nc5cc(NC(=O)C6CC6)nnc5C(=O)NC)c4OC)cn3)C2)n1 [Compound 152]
17 | 0.01 to 10 nM | 5000 to 100000 nM | 500 to 5000 nM | 500 to 5000 nM |  |  |  |  | CNC(=O)c1nnc(NC(=O)C2CC2)cc1Nc1cc(F)cc(-c2cnn(C3CN(Cc4ccn(C)n4)C3)c2)c1OC [Compound 155]
18 | 10 to 50 nM | 5000 to 100000 nM | 5000 to 100000 nM | 5000 to 100000 nM |  |  |  |  | CNC(=O)c1nnc(NC(=O)C2CC2)cc1Nc1cccc(-c2nnc(C3CN(Cc4ccccn4)C3)o2)c1OC [Compound 156]
19 | 0.01 to 10 nM | 5000 to 100000 nM | 5000 to 100000 nM | 5000 to 100000 nM |  |  |  |  | CNC(=O)c1nnc(NC(=O)C2CC2)cc1Nc1cccc(-c2nnc(C3CN(Cc4cccc(C)n4)C3)o2)c1OC [Compound 157]
20 | 0.01 to 10 nM | 5000 to 100000 nM | 50 to 500 nM | 50 to 500 nM |  |  |  |  | CNC(=O)c1nnc(NC(=O)C2CC2)cc1Nc1cccc(-c2ccc(C(=O)N(C)Cc3cc(C(F)F)ccn3)nc2)c1OC [Compound 158]
21 | 0.01 to 10 nM | 5000 to 100000 nM | 50 to 500 nM | 50 to 500 nM |  |  |  |  | CNC(=O)c1nnc(NC(=O)C2CC2)cc1Nc1cccc(-c2ccc(C(=O)N(Cc3cc(C#N)ccn3)OC)nc2)c1OC [Compound 159]
22 |  |  |  |  | 0.01 to 10 nM | 50 to 500 nM | 50 to 500 nM | 50 to 500 nM | COc1c(Nc2cc(NC(=O)C3CC3)nnc2C(N)=O)cccc1-c1ccc(C(=O)N(C)Cc2cc(C#N)ccn2)nc1 [Compound 220]
23 |  |  |  |  | 50 to 500 nM | 5000 to 100000 nM | 5000 to 100000 nM | 5000 to 100000 nM | CNC(=O)c1nnc(NC(=O)C2CC2)cc1Nc1cccc(-c2cnn(C3CN(C(C)=O)C3)c2)c1OC [Compound 301]
24 |  |  |  |  | 0.01 to 10 nM | 500 to 5000 nM | 50 to 500 nM | 50 to 500 nM | CNC(=O)c1nnc(NC(=O)C2CC2)cc1Nc1cccc(-c2cn(C3CN(Cc4cccc(C#N)n4)C3)nc2COC)c1OC [Compound 328]
25 |  |  |  |  | 0.01 to 10 nM | 500 to 5000 nM | 500 to 5000 nM | 500 to 5000 nM | CNC(=O)c1nnc(NC(=O)C2CC2)cc1Nc1cccc(-c2cn(C3CN(Cc4cccc(C#N)n4)C3)nc2CO)c1OC [Compound 329]
